Converted amounts (≈) assume the structure as drawn.
Experiments:
[1] = target: T1, Falcipain 2 (Plasmodium falciparum, UniProt Q9N6S8); experiment: Inhibition of Plasmodium falciparum falcipain-2
T1 sequence (Q9N6S8 whole entry): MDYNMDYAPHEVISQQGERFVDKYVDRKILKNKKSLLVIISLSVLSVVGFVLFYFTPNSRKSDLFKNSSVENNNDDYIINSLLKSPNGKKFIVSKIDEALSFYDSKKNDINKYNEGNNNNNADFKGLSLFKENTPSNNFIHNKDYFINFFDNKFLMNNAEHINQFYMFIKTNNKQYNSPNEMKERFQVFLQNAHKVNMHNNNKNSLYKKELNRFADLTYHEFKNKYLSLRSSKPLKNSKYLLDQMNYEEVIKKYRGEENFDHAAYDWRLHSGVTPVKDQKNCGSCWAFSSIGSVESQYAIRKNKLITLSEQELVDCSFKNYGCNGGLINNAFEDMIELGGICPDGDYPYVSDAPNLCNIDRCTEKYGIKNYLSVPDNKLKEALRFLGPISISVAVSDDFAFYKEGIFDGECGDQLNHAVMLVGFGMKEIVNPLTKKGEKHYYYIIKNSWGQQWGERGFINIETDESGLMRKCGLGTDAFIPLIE

[2] = test system: Plasmodium falciparum; experiment: Antimicrobial activity against chloroquine-sensitive Plasmodium falciparum D10; type: functional, organism-based
[3] = test system: Plasmodium falciparum; experiment: Antimicrobial activity against chloroquine-resistant Plasmodium falciparum W2; type: functional, organism-based
[4] = test system: Mycobacterium tuberculosis; experiment: Antitubercular activity against Mycobacterium tuberculosis H37Rv by microplate Alamar blue assay; type: functional
[5] = test system: Mycobacterium tuberculosis; experiment: Antitubercular activity against Mycobacterium tuberculosis H37Rv by low-oxygen-recovery assay; type: functional

Row | Compound | IC50 [1] | IC50 [2] | IC50 [3] | MIC [4] | MIC [5]
1 | C#CCOc1ccccc1/C=C/C(=O)c1ccc(OC)cc1OC | > 100 µM | 8 µM | > 20 µM | 59.1 µM (≈ 19.1 µg/mL) | 14.9 µM (≈ 4.8 µg/mL)
2 | C#CCOc1ccc(/C=C/C(=O)c2ccc(OC)cc2)cc1 | > 100 µM | > 100 µM | > 20 µM | > 128 µM | –
3 | C#CCOc1cccc(C(=O)/C=C/c2ccc(OC)cc2OC)c1 | > 100 µM | > 100 µM | > 20 µM | > 128 µM | –
4 | C#CCOc1cccc(C(=O)/C=C/c2ccc(OC)c(OC)c2OC)c1 | > 100 µM | 33 µM | > 20 µM | 58.7 µM (≈ 20.7 µg/mL) | 29.7 µM (≈ 10.5 µg/mL)
5 | C#CCOc1ccc(/C=C/C(=O)c2ccc(OC)cc2OC)cc1OC | – | 3.4 µM | 3.8 µM | > 128 µM | –
6 | C#CCOc1ccc(C(=O)/C=C/c2ccc(OC)cc2OC)cc1 | > 100 µM | > 100 µM | > 20 µM | 31 µM (≈ 9.99 µg/mL) | 108 µM (≈ 34.8 µg/mL)
7 | C#CCOc1ccc(C(=O)/C=C/c2ccc(OC)c(OC)c2OC)cc1 | > 100 µM | 4.43 µM | > 20 µM | > 128 µM | –
8 | C#CCOc1ccc(/C=C/C(=O)c2ccc(OC)cc2)cc1OC | – | 9.7 µM | 8.4 µM | > 128 µM | –
9 | C#CCOc1ccc(/C=C/C(=O)c2ccc(OC)c(OC)c2OC)cc1OC | – | 7.7 µM | 7 µM | 109 µM (≈ 41.7 µg/mL) | –
10 | C#CCOc1ccccc1C(=O)/C=C/c1ccc(OC)c(OC)c1OC | > 100 µM | > 100 µM | > 20 µM | 98.7 µM (≈ 34.8 µg/mL) | 46.1 µM (≈ 16.2 µg/mL)
11 | C#CCOc1cccc(C(=O)/C=C/c2ccc(OC)cc2)c1 | > 100 µM | > 100 µM | > 20 µM | 51.2 µM (≈ 15 µg/mL) | > 128 µM
12 | C#CCOc1ccc(/C=C/C(=O)c2ccc(OC)c(OC)c2OC)cc1 | > 100 µM | 13.3 µM | > 20 µM | > 128 µM | –
13 | C#CCOc1ccccc1C(=O)/C=C/c1ccc(OC)cc1 | > 100 µM | > 100 µM | > 20 µM | 31.1 µM (≈ 9.09 µg/mL) | 56.7 µM (≈ 16.6 µg/mL)
14 | C#CCOc1ccccc1C(=O)/C=C/c1ccc(OC)cc1OC | > 100 µM | 18.9 µM | > 20 µM | 53.7 µM (≈ 17.3 µg/mL) | 62.8 µM (≈ 20.2 µg/mL)
15 | C#CCOc1cccc(/C=C/C(=O)c2ccc(OC)cc2)c1 | > 100 µM | 11.6 µM | > 20 µM | 40 µM (≈ 11.7 µg/mL) | 31.7 µM (≈ 9.27 µg/mL)
16 | C#CCOc1cccc(/C=C/C(=O)c2ccc(OC)cc2OC)c1 | > 100 µM | 7.57 µM | > 20 µM | 54.9 µM (≈ 17.7 µg/mL) | 26.1 µM (≈ 8.41 µg/mL)
17 | C#CCOc1cccc(/C=C/C(=O)c2ccc(OC)c(OC)c2OC)c1 | > 19 µM | > 100 µM | > 20 µM | 54 µM (≈ 19 µg/mL) | 13.1 µM (≈ 4.62 µg/mL)
18 | C#CCOc1ccccc1/C=C/C(=O)c1ccc(OC)cc1 | > 100 µM | > 100 µM | > 20 µM | 47.5 µM (≈ 13.9 µg/mL) | 50.7 µM (≈ 14.8 µg/mL)
19 | C#CCOc1ccccc1/C=C/C(=O)c1ccc(OC)c(OC)c1OC | > 100 µM | 50.6 µM | > 20 µM | 61.9 µM (≈ 21.8 µg/mL) | 28.6 µM (≈ 10.1 µg/mL)
20 | C#CCOc1ccc(C(=O)/C=C/c2ccc(OC)c(OC)c2OC)cc1OC | – | 4.1 µM | 6.7 µM | > 128 µM | –
21 | C#CCOc1ccc(/C=C/C(=O)c2ccc(OC)cc2OC)cc1 | > 100 µM | 54.8 µM | > 20 µM | > 128 µM | –
22 | C#CCOc1ccc(C(=O)/C=C/c2ccc(OC)cc2)cc1 | > 100 µM | 16.5 µM | > 20 µM | > 128 µM | –
23 | C#CCOc1ccc(C(=O)/C=C/c2ccc(OC)cc2OC)cc1OC | – | 20 µM | 9.7 µM | > 128 µM | –
24 | CC(C)C[C@H](NC(=O)[C@H]1O[C@@H]1C(=O)O)C(=O)NCCCCN=C(N)N [E-64] | 0.047 µM | – | – | – | –
25 | NNC(=O)c1ccncc1 [ISONIAZID] | – | – | – | 0.37 µM (≈ 0.0507 µg/mL) | > 128 µM
26 | COc1c(N2C[C@@H]3CCCN[C@@H]3C2)c(F)cc2c(=O)c(C(=O)O)cn(C3CC3)c12 [MOXIFLOXACIN] | – | – | – | 0.29 µM (≈ 0.116 µg/mL) | 31.1 µM (≈ 12.5 µg/mL)
27 | O=[N+]([O-])c1cn2c(n1)OC[C@@H](OCc1ccc(OC(F)(F)F)cc1)C2 [PRETOMANID] | – | – | – | 0.16 µM (≈ 0.0575 µg/mL) | 3.3 µM (≈ 1.19 µg/mL)
28 | CO[C@H]1/C=C/O[C@@]2(C)Oc3c(C)c(O)c4c(O)c(c(/C=N/N5CCN(C)CC5)c(O)c4c3C2=O)NC(=O)/C(C)=C\C=C\[C@H](C)[C@H](O)[C@@H](C)[C@@H](O)[C@@H](C)[C@H](OC(C)=O)[C@@H]1C [RIFAMPIN] | – | – | – | 0.05 µM (≈ 0.0411 µg/mL) | 2.4 µM (≈ 1.98 µg/mL)

Reference: ChEMBL document CHEMBL1159089, “Synthesis, antimalarial and antitubercular activity of acetylenic chalcones” (Bioorg Med Chem Lett, 2010)
